# Like-named read-outs stand apart in the source and are kept apart here.
# Columns and labels:
# [1] = MTT cell viability assay against Hs27 cells; assay type: cell-based; conditions: human, Hs27 fibroblast cells, >100 µM indicates no activity, read-out: CC50 against human fibroblasts Hs27
# Procedure: Figure 4 Effect of the natural products on the metabolic activity of Hs27 cells via MTT assay. Hs27 cells were plated in 96-well plates and grown to confluence prior to incubation at 37 °C for 24 h with the natural products in the concentration range of […]. The cultures were incubated with 10 μL of the 12 mM MTT stock solution for approximately 4 h. Afterwards, 100 μL of SDS dissolved in HCl was added to each well and incubated again for 4 h at 37 °C. Finally, the absorbance was measured at 570 nm by spectrophotometry. Values shown in (A–F) represent the means of three independent experiments each done in duplicate (n = 6) ± SEM. Cytotoxicity in Hs27 cells of NK-A 17e233 (A); 1,2-benzenediol, 3-(4-hydroxy-2-methoxy-6-methylphenoxy)-5-methyl-(ACI) (B); cyperin (C); ES-242-1 (D); ES-242-3 (E); 5S,6S-phomalactone (F).
# The 3-[4,5-dimethylthiazole-2-yl]-2,5-diphenyltetrazolium bromide (MTT) test was used to assess cell viability of the isolated active compounds against Hs27 cells. The MTT assay is a colorimetric reaction based on the enzymatic reduction of MTT to MTT-formazan, which is catalyzed by mitochondrial succinate dehydrogenase.
# In brief, Hs27 cells were seeded 96-well plates in a monolayer in Iscove’s modified Dulbecco’s medium (Gibco–Thermo Fisher Scientific, Braunschweig, Germany) and incubated at 37 °C with different concentrations of the tested natural products (1.56, 3,12, 6.25, 12,5, 25, 50, 100 µM) in the culture media. Staurosporine ([…], 0.25, 0.5, 1 µM), a well-known cytotoxicity-inducing kinase inhibitor [40], untreated Hs27 cells, and DMSO were used as controls. After 24 h, the medium of the culture was removed and replaced with 100 μL of DMEM without red phenol (Gibco–Thermo Fisher Scientific, Braunschweig, Germany) plus 10% heat-inactivated fetal bovine serum (Invitrogen, Karlsruhe, Germany), and […] 2-mercaptoethanol (Gibco–Thermo Fisher Scientific, Braunschweig, Germany). Afterwards, the 12 mM MTT solution was added to each well according to the manufacturer’s instruction (Vybrant MTT Cell Proliferation Assay Kit, Thermo Fisher Scientific, Braunschweig, Germany). The OD value of each well was assayed at the wavelength of 570 nm on a microplate reader (TECAN Sunrise, Männedorf, Switzerland). The 50% cytotoxic concentration (CC50 values) of the tested natural products on Hs27 cells was calculated and all data were analyzed using Prism GraphPad version 9.2.0 software.
# T. gondii strain ME49 = test: T. gondii proliferation assay (3H-uracil incorporation); assay type: cell-based, Toxoplasma gondii
# P. aeruginosa ATCC 87110 = test: Minimal inhibitory concentration assay (BacTiter Glo), P. aeruginosa; assay type: cell-based; conditions: Pseudomonas aeruginosa, read-out: MIC90 P. aeruginosa ATCC 87110
# M. tuberculosis H37Rv = test: Minimal inhibitory concentration, resazurin reduction assay, M. tuberculosis; assay type: cell-based, Mycobacterium tuberculosis; conditions: for MIC90: Mycobacterium tuberculosis, H37RV, 120 h, read-out: MIC90 M. tuberculosis H37Rv
# [2] = tested on: HEK293 (human embryonic kidney cell line); test: Resazurin cytotoxicity assay, HEK-293; assay type: cell-based; conditions: for IC50: Homo sapiens, read-out: Mean IC50 HEK-293
# Procedure: (§1) Figure 5 Effect of the natural products on the viability of THP-1, Huh-7, and HEK-293 cells. Cytotoxic effect of NK-A17e233 (A); 1,2-benzenediol,3-(4-hydroxy-2-methoxy-6-methylphenoxy)-5-methyl-(ACI) (B); cyperin (C); ES-242-1 (D); ES-242-3 (E); 5S,6S-phomalactone (F) against the human cell lines THP-1, Huh-7, and HEK-293 as determined by resazurin assay. 100% growth control DMSO, 0% growth control cycloheximide. Values represent the means of triplicates ± SEM.
# (§2) The cytotoxicity study was carried out using the THP-1 (human monocytic leukemia cell line), Huh-7 (Human liver carcinoma cell line), and HEK293 (human embryonic kidney cell line) cell lines as described before. The THP-1 cells were cultured using RPMI 1640 medium containing 2 mM L-glutamine and supplemented with 10% fetal calf serum (FCS) and 1% sodium pyruvate. Huh-7 cells were cultured using a 1:1 mixture of RPMI 1640 medium containing 2 mM L-glutamine and 10% FCS medium and DMEM containing 10% FCS and 1% sodium pyruvate. The HEK-293 cells were cultured with DMEM including 2 mM L-glutamine and supplemented with 1% NE amino acids, 1% 1.0 mM sodium pyruvate and 10% FCS. All three cell lines were then incubated at 37 °C in an atmosphere of 5% CO2 under humid conditions for 2 weeks while renewing the medium twice weekly. Subsequently, the cells were suspended and adjusted to a density of 2 × 10^5 cells/mL. In a 96-well flat-bottom microtiter plate, the cells were adjusted to a total volume of 100 μL containing 2-fold serial dilutions of the tested compounds A–F ranging from 100 to 1.56 μM. Cycloheximide (4, 2, 1, 0.5, 0.25, 0.13, 0.06, 0.03 µg/mL) was used as a positive control. After an incubation time of 48 h at 37 °C in an atmosphere of 5% CO2 under humid conditions, 10 μL resazurin solution (100 μg/mL) was added to each well and incubated for another 4 h. The fluorescence was then quantified using a Tecan Infinite 200pro microplate reader (excitation 540 nm, emission 590 nm). The residual growth was calculated relative to non-inoculated conditions (0% growth) and controls treated with DMSO (100% growth).
# [3] = tested on: THP-1 (human monocytic leukemia cell line); test: Resazurin cytotoxicity assay, THP-1; assay type: cell-based; conditions: for IC50: Homo sapiens, read-out: Mean IC50 THP1
# Procedure: as §1, §2
# S. aureus ATCC 700699 = test: Minimal inhibitory concentration assay (BacTiter Glo), S. aureus; assay type: cell-based; conditions: Staphylococcus aureus, read-out: MIC90 S. aureus ATCC 700699
# [4] = tested on: Huh-7 (Human liver carcinoma cell line); test: Resazurin cytotoxicity assay, Huh-7; assay type: cell-based; conditions: for IC50: Homo sapiens, read-out: Mean IC50 Huh-7
# Procedure: as §1, §2
# Plasmodium falciparum = conditions: cited from earlier work
# [5] = Toxoplasma gondii, HS27, Hs27 host cells, 48 h treatment, 3H-uracil incorporation, read-out: IC50 against T. gondii strain ME49 (proliferation)
# [6] = ATCC87110, 24 h, >100 µM indicates no activity
# [7] = 5 days, resazurin, >100 µM indicates no activity
# [8] = HEK293, resazurin assay, 48 h, >100 µM indicates no activity
# [9] = THP-1, resazurin assay, 48 h, >100 µM indicates no activity
# [10] = ATCC700699, 24 h, >100 µM indicates no activity
# [11] = Huh-7, resazurin assay, 48 h, >100 µM indicates no activity
# [12] = Toxoplasma gondii, HS27, read-out: IC50 against T. gondii strain ME49 (proliferation)
# [13] = reported activity, read-out: IC50 against P. falciparum
# [14] = resazurin assay, 48 h, >100 µM indicates no activity
# [15] = Hs27 host cells, 48 h treatment, 3H-uracil incorporation
Compound,CC50 at 24 h [1] [µM],IC50 (T. gondii strain ME49; [5]) [µM],MIC90 (P. aeruginosa ATCC 87110; [6]) [µM],MIC90 M. tuberculosis H37Rv (M. tuberculosis H37Rv; [7]),MIC90 (M. tuberculosis H37Rv; [7]) [µM],"IC50 [2, 8] [µM]","IC50 [3, 9] [µM]",MIC90 (S. aureus ATCC 700699; [10]) [µM],"IC50 [4, 11] [µM]",IC50 (T. gondii strain ME49; [12]) [µM],further results
"COc1cc(O)cc(C)c1Oc1cc(C)cc(O)c1O [B, 3-(4-Hydroxy-2-methoxy-6-methylphenoxy)-5-methylbenzene-1,2-diol]",> 100,19.4,> 100,no inhibitory effect,> 100,> 100,> 100,> 100,> 100,,"IC50 (T. gondii strain ME49; Hs27 host cells, 48 h treatment, 3H-uracil incorporation, read-out: IC50 against T. gondii strain ME49 (proliferation)): 22.2 µM"
"COc1cc(C)c(Oc2cc(C)cc(O)c2O)c(O)c1 [Compound A, NK-A 17e233]",> 100,5.75,> 100,no inhibitory effect,> 100,> 100,> 100,> 100,> 100,,
"COc1cc(C)c(Oc2cc(C)cc(O)c2)c(O)c1 [Compound C, cyperin]",> 100,,,no inhibitory effect,,,,,,27.2,"MIC90 (P. aeruginosa ATCC 87110; ATCC87110, 24 h): > 100 µM; MIC90 (M. tuberculosis H37Rv): > 100 µM; IC50 ([2]; HEK293, 48 h): > 100 µM; IC50 ([3]; THP-1, 48 h): > 100 µM; MIC90 (S. aureus ATCC 700699; ATCC700699, 24 h): > 100 µM; IC50 ([4]; Huh-7, 48 h): > 100 µM"
"COc1cc(OC)c2c(O)c3c(c(-c4c5c(c(O)c6c(OC)cc(OC)cc46)CO[C@@H](C)[C@H]5OC(C)=O)c2c1)C[C@@H](C)OC3 [D, ES-242-1]",> 100,7.38,> 100,,50,93.8,> 100,> 100,> 100,,IC50 (Plasmodium falciparum; [13]): 8.44 µM
"COc1cc(OC)c2c(O)c3c(c(-c4c5c(c(O)c6c(OC)cc(OC)cc46)CO[C@@H](C)[C@H]5OC(C)=O)c2c1)C(O)[C@@H](C)OC3 (stereo partly shown) [E, ES-242-3]",> 100,18,> 100,,100,16.9,21.9,> 100,13,,"IC50 (Plasmodium falciparum; [13]): 13.2 µM; Mean IC50 HEK-293 [2, 14]: moderate cytotoxic activity; Mean IC50 THP1 [3, 14]: moderate cytotoxic activity; Mean IC50 Huh-7 [4, 14]: moderate cytotoxic activity"
"C/C=C/[C@@H]1OC(=O)C=C[C@@H]1O [F, 5S,6S-phomalactone]",81,,100,no inhibitory effect,,66.9,24.3,> 100,100,5.13,"MIC90 (M. tuberculosis H37Rv): > 100 µM; IC50 (Plasmodium falciparum; previous report, read-out: IC50 against Plasmodium falciparum): 84.3 µM; Mean IC50 HEK-293 [2, 14]: no or weak cytotoxic effects; Mean IC50 Huh-7 [4, 14]: no or weak cytotoxic effects"
"Cc1cc(O)c(C)c(=O)o1 [G, methyltriaceticlactone]",,,> 100,no inhibitory effect,> 100,,,> 100,,,IC50 against T. gondii strain ME49 (proliferation) (T. gondii strain ME49; [15]): Not active
"CCC(C)CC(C)/C=C(C)/C=C/CC(C)C(O)C(C)/C=C(C)/C=C/C(O)C(C)(C)c1cc(O)c([C@H]2O[C@@H](CO)C[C@@H](O)[C@@H]2O)c(=O)o1 (stereo partly shown) [H, S 39163/F-1]",,,> 100,no inhibitory effect,> 100,,,> 100,,,IC50 against T. gondii strain ME49 (proliferation) (T. gondii strain ME49; [15]): Not active
"CCc1nc(N)nc(N)c1-c1ccc(Cl)cc1 [pyrimethamine, reference compound]",44,,,,,,,,,0.06,

# — PMC9495004, “In Vitro Biological Activity of Natural Products from the Endophytic Fungus Paraboeremia selaginellae against Toxoplasma gondii” (Antibiotics, 2022)
